Bounds are passed on as bounds.

The subject of data set [1] is P. aeruginosa ATCC 27853 efflux of EtBr. As to the kind of experiment: Ethidium bromide (EtBr) efflux inhibition assay. The class given is cell-based, Pseudomonas aeruginosa. Particulars: fluorescence, after glucose activation. As to the method:
The ability of TXA09155 to inhibit efflux in P. aeruginosa was studied using two quantitative assays to establish efflux inhibition as the MOA. In the first assay, the efflux of ethidium bromide (EtBr) by P. aeruginosa cells is studied in the presence of different concentrations of TXA09155. Wild-type P. aeruginosa ATCC 27853 cells were incubated with EtBr to allow for the intracellular accumulation and were treated with CCCP to inhibit active efflux. […] Following activation by the addition of glucose, the efflux of EtBr can be followed in real time as a decrease in fluorescence based on the concentration of TXA09155.
Efflux of EtBr from P. aeruginosa in the presence of TXA09155 was carried out as described previously.

Data set [2] in a line: CellTiterGlo cytotoxicity assay. Particulars: human, 293T cells. Format: cell-based. Background: Cellular ATP, detected with luciferase, serves as a proxy for viable cell number.
Data set [3] in a line: CellTiterGlo cytotoxicity assay. The class given is cell-based. Particulars: human, A549 cells.

In the case of `Cl.NC[C@@H]1CN[C@H](CNC(=O)c2cc3ccc(-c4ccc(F)cc4)cc3[nH]2)C1` [TXA09155, N-(((2S,4R)-4-(aminomethyl)pyrrolidine-2-yl)methyl)-6-(4-fluorophenyl)-1H-indole-2-carboxamide hydrochloride salt], the “inhibition of EtBr efflux” value in data set [1] is “concentration-dependent inhibition”. The IC50 in data set [2] and in data set [3] was over 40 µM in each case.

In general, IC50 refers to the concentration needed to halve the response being measured. Low values mean greater potency in that assay, high ones weaker potency in that assay.

For the origin of these results see PMC9220351, “Evaluation of a Conformationally Constrained Indole Carboxamide as a Potential Efflux Pump Inhibitor in Pseudomonas aeruginosa” (Antibiotics, 2022).
